In the SangsterLogP compilation:

SMILES	logP
O=C(O)C1CCCCC1	1.96
O=C(O)c1cc(O)cc(O)c1	0.94
O=C(O)c1cc(O)c(O)c(O)c1	0.72
O=C(O)c1ccc(O)c(O)c1	0.99
COc1cc(C(O)C(=O)O)ccc1O (centres undefined)	0.84
O=C(O)Cc1ccccc1O	1.47
O=C(O)Cn1ccc2ccccc21	1.92
CC(C)CCOC(=O)c1ccccc1	4.1
COc1cccc(C(O)C(=O)O)c1 (centres undefined)	1.33
O=C(O)Cc1cc(O)ccc1O	0.86
COc1cc(CC(=O)O)ccc1O	1.18
O=C(O)Cn1ccc2cc(O)ccc21	1.17
CCCCOC(=O)c1ccccc1	3.68
O=C(O)CCn1ccc2ccccc21	2.2
CCC(=O)c1ccccc1	2.3
COc1cccc(/C=C/C(=O)O)c1	2.37
O=C(O)Cc1ccc(O)c(O)c1	0.98
O=C(O)c1cc2ccccc2cc1O	3.05
O=C(O)Cc1ccc(O)cc1	1.26
